Data reported in patent EP2177533A1, “Multiple N-methylated cyclic hexapeptides for treatment of neurogenic inflammation” (TU München, priority 2008, dated 2010).
Marks after values point to notes of the source that are not given here.

Legend:
[1] = cited from earlier work
[2] = cited from earlier work; remark: listed apart in the source
[3] = test system: 1% mustard oil-induced neurogenic plasma protein extravasation in the rat paw skin; format: in vivo; conditions: 100 µg/kg i.p., 10 min before induction of inflammation; rat hindpaw dorsal skin
Experimental: • Figure 1 provides a graphical representation of the effect of some compounds of the present invention on electrical field stimulation (EFS; 40 V, 0.1 ms, 10 Hz for 120 s; 1200 pulses)-induced calcitonin gene-related (CGRP) release from sensory fibres of the isolated rat tracheae. Each column represents the mean±s.e.m. CGRP concentration measured in the incubation medium of the prestimulated, stimulated and poststimulated 8-minute fractions of n = 5 experiments (5 x 2 tracheae/group). Analogs were added to the incubation medium (500 nM) at the beginning of the second and third fractions. *P<0.05, **P<0.01, vs. respective fraction of the control experiment (Mann-Whitney U-test). • Figure 2 provides a graphical representation of the effect of small peptide somatostatin analogs on 1% mustard oil-induced acute neurogenic plasma protein extravasation in the dorsal skin of the rat paw. Each column represents the mean±s.e.m. Evans blue accumulation per g wet skin of n = 6-10 experiments. […]
To confirm the findings of this in vitro study, a further in vivo activity test was performed: Compounds of the invention were examined on 1% mustard oil-induced neurogenic plasma protein extravasation in the rat paw skin.
Both hindlegs of the rats were acutely denervated (the sciatic and the saphenous nerves were cut 30 min before the induction of inflammation) under sodium pentobarbitone (Nembutal, 40 mg/kg i.p.) anaesthesia to avoid central reflexes. Acute neurogenic inflammation in the dorsal skin of the hindpaws was evoked by topical application of 1 % mustard oil dissolved in paraffin oil. Extravasation of plasma albumin was measured by the Evans blue leakage method. Evans blue (50 mg/kg) was injected i.v. and neurogenic inflammation was induced 10 min later. Rats were killed by exsanguination 20 min after mustard oil application. […] The amount of the accumulated Evans blue, which quantitatively correlates with the intensity of plasma extravasation, was expressed as µg dye/g wet tissue (Helyes et al., 1997; Helyes et al., 2001). […]

[4] = test system: peripheral terminals of sensory nerves of the isolated rat trachea; assay: Electrical field stimulation-induced CGRP release from sensory nerve terminals of the isolated rat trachea (RIA); conditions: 500 nM; for EFS-evoked increase in the outflow of CGRP: stimulated and post-stimulated fractions vs control; for CGRP release in % compared to the prestimulated fraction: total CGRP release in stimulated and poststimulated fractions together vs basal outflow, n=5, mean with spread
Experimental: • Figure 1 provides a graphical representation of the effect of some compounds of the present invention on electrical field stimulation (EFS; 40 V, 0.1 ms, 10 Hz for 120 s; 1200 pulses)-induced calcitonin gene-related (CGRP) release from sensory fibres of the isolated rat tracheae. Each column represents the mean±s.e.m. CGRP concentration measured in the incubation medium of the prestimulated, stimulated and poststimulated 8-minute fractions of n = 5 experiments (5 x 2 tracheae/group). Analogs were added to the incubation medium (500 nM) at the beginning of the second and third fractions. *P<0.05, **P<0.01, vs. respective fraction of the control experiment (Mann-Whitney U-test). • Figure 2 provides a graphical representation of the effect of small peptide somatostatin analogs on 1% mustard oil-induced acute neurogenic plasma protein extravasation in the dorsal skin of the rat paw. Each column represents the mean±s.e.m. Evans blue accumulation per g wet skin of n = 6-10 experiments. Analogs were injected i.p. (100 µg/kg) 10 min before the induction of the inflammation. *P<0.05 vs. solvent-treated control experiment (Mann-Whitney U-test).
The activities of the above described synthetic somatostatin analogs were determined by means of an in vitro pharmacological assay on the release of the sensory neuropeptide CGRP from the peripheral terminals of sensory nerves of the isolated rat trachea. This experimental model was established more than 10 years ago (Helyes et al. (1997) Br. J. Pharmacol. 121, 613-615; Szolcsányi et al. (1998) Br. J. Pharmacol. 123, 936-942; Szolcsányi et al. (1998) Br. J. Pharmacol. 125, 916-922; Helyes et al. (2004) Arthr. Rheum., 50, 1677-1685; Bölcskei et al. (2005) Pain 117, 368-376; Helyes et al. (2007) Am. J. Physiol. Lung Cell. Mol. Physiol. 292, L1173-81; Nemeth et al. (1998) Eur. J. Pharmacol, 347, 101-104.) and it represents a reliable and sensitive technique for the investigation of drug effects at the level of peripheral nerve endings. Electrical field stimulation parameters are used to induce CGRP release that is selective for capsaicin-sensitive afferents. Since CGRP is an important mediator of neurogenic inflammation, the effectiveness of compounds in decreasing its electrically-evoked release in vitro may be seen as an indicator for effectiveness to inhibit neurogenic inflammatory reactions in vivo.
Experiments were performed on male Wistar rats bred and kept in the Laboratory Animal Centre of the University of Pécs under standard pathogen free conditions at 24-25 °C and provided with standard rat chow and water ad libitum. The method has been described in detail elsewhere (Helyes et al. (1997) Br. J. Pharmacol. 121, 613-615; Nemeth et al. (1998) Eur. J. Pharmacol. 347, 101-104.). In brief, rats were exsanguinated in deep anesthesia (sodium thiopental, 50 mg/kg i.p.), then the whole trachea was removed and cleaned of fat and adhering connective tissues. Tracheae from two rats were placed into the same organ bath (1.8 ml) to achieve sufficient amount of peptide release and perfused (1 ml/min) with pH- (7.2) controlled oxygenized Krebs solution for 60 min (equilibration period) at 37 °C temperature. After discontinuation of the flow, the solution was changed three times for eight minutes to produce prestimulated, stimulated, poststimulated fractions. In the second 8-min period electrical field stimulation (EFS; 40 V, 0.1 ms, 10 Hz for 120 s; 1200 pulses) was performed to elicit neurotransmitter release. Concentration of CGRP was determined from 200 µL samples of the incubation medium by a selective and specific radioimmunoassay (RIA) technique as described previously in detail (Nemeth et al., 1996; Helyes et al., 1997; Nemeth et al., 1998; Nemeth et al., 1999). Peptide outflow was expressed as the released amount per wet tissue weight. Detection limit of the assay was 0.2 fmol/tube. […]

[5] = cited from earlier work; remark: listed apart in the source

CC(C)[C@@H]1NC(=O)[C@H](CCCCN)NC(=O)[C@@H](Cc2c[nH]c3ccccc23)NC(=O)[C@H](Cc2ccc(O)cc2)NC(=O)[C@H](C)N(C)C(=O)[C@H](Cc2ccccc2)NC1=O [MK-678-0, c(-MeAYwKVF-)]
stability in the blood and in the gastrointestinal tract [1]: quite stable | bioavailability after oral administration [2]: 1-3%

CC(C)[C@@H]1NC(=O)[C@H](CCCCN)N(C)C(=O)[C@@H](Cc2c[nH]c3ccccc23)N(C)C(=O)[C@H](Cc2ccc(O)cc2)NC(=O)[C@H](C)N(C)C(=O)[C@H](Cc2ccccc2)N(C)C1=O [MK-678-1, cyclo(-MeAla-Tyr-D-MeTrp-MeLys-Val-MePhe-)]
µg Evans blue/g wet tissue (mean±s.e.m.) [3]: 90.06±10.4* µg Evans blue/g wet tissue | CGRP outflow in the poststimulated fraction ([4]; poststimulated fraction): completely abolished | EFS-evoked increase in the outflow of CGRP [4]: significantly inhibited | inhibitory action on CGRP outflow in the stimulated period ([4]; stimulated fraction, EFS 1200 pulses): about 70% | CGRP release in % compared to the prestimulated fraction [4]: 99,58 ± 39,89** %

CC(C)[C@@H]1NC(=O)[C@H](CCCCN)N(C)C(=O)[C@@H](Cc2c[nH]c3ccccc23)N(C)C(=O)[C@H](Cc2ccc(O)cc2)NC(=O)[C@H](C)N(C)C(=O)[C@H](Cc2ccccc2)NC1=O [MK-678-2, cyclo(-MeAla-Tyr-D-MeTrp-MeLys-Val-Phe-)]
µg Evans blue/g wet tissue (mean±s.e.m.) [3]: 119.92±32.7 µg Evans blue/g wet tissue | EFS-evoked increase in the outflow of CGRP [4]: significantly inhibited | CGRP release in % compared to the prestimulated fraction [4]: 153,12 ± 29,72* %

CC(C)[C@@H]1NC(=O)[C@H](CCCCN)N(C)C(=O)[C@@H](Cc2c[nH]c3ccccc23)NC(=O)[C@H](Cc2ccc(O)cc2)NC(=O)[C@H](C)N(C)C(=O)[C@H](Cc2ccccc2)NC1=O [MK-678-3, cyclo(-MeAla-Tyr-D-Trp-MeLys-Val-Phe-)]
µg Evans blue/g wet tissue (mean±s.e.m.) [3]: 127.13±23.0 µg Evans blue/g wet tissue | EFS-evoked increase in the outflow of CGRP [4]: significantly inhibited | CGRP release in % compared to the prestimulated fraction [4]: 181,57 ± 54,17* %

Somatostatin
half life in serum [5]: < 3 min
